Reference: ChEMBL document CHEMBL1124348, “Synthesis and biological evaluation of substituted benzo[h]cinnolinones and 3H-benzo[6,7]cyclohepta[1,2-c]pyridazinones: higher homologues of the antihypertensive and antithrombotic 5H-indeno[1,2-c]pyridazinones” (J Med Chem, 1989)
Active and inactive are the calls of the source. The calls are words filed in the database; no cut-off is given here.

Assays:
Mus musculus [1] = assay: (§1) Lethal dose in mouse by administering compound intraperitoneally; format: toxicity, organism-based; details: in vivo, ip
Rattus norvegicus [2] = assay: Antihypertensive activity in hypertensive rats, after peroral administration that lowered the blood pressure by 50 mmHg; value ranges from 0.52 to 4.88; format: functional; details: po
Cavia porcellus [3] = organism: Cavia porcellus; assay: In vitro inhibitory activity of collagen (0.8 ug/mL)-induced platelet aggregation in guinea pig platelet rich plasma at a dose of 0.8 ug/mL; format: functional
Cavia porcellus [4] = organism: Cavia porcellus; assay: Inotropic activity against guinea pig spontaneously beating atria; format: functional
Cavia porcellus [5] = organism: Cavia porcellus; assay: In vitro reversible inhibitory activity of adenosine diphosphate (0.5 uM)-induced platelet aggregation in guinea pig platelet rich plasma; format: functional
Rattus norvegicus [6] = organism: Rattus norvegicus; assay: Antihypertensive action versus dihydralazine; format: functional
Mus musculus [7] = assay: Antithrombotic activity in mouse when administered a dose of 20 mg/kg perorally; format: functional; details: route oral
Rattus norvegicus [8] = assay: Variation in heart rate when 25 mg/kg administered orally in rats; format: functional; details: route oral
Cavia porcellus [9] = organism: Cavia porcellus; assay: In vitro irreversible inhibitory activity of adenosine diphosphate (0.5 uM)-induced platelet aggregation in guinea pig platelet rich plasma; format: functional
Cavia porcellus [10] = organism: Cavia porcellus; assay: In vitro inhibitory activity of thrombin (0.625 IU/mL)-induced platelet aggregation in guinea pig platelet rich plasma after 2 min; format: functional
Cavia porcellus [11] = organism: Cavia porcellus; assay: In vitro inhibitory activity of thrombin (0.625 IU/mL)-induced platelet aggregation in guinea pig platelet rich plasma after 4 min; format: functional
Rattus norvegicus [12] = assay: Antihypertensive activity in hypertensive rats, after peroral administration that lowered the blood pressure by 50 mmHg; value ranges from 6.52 to 14.62; format: functional; details: po
[13] = as §1; format: toxicity, organism-based; details: in vivo, ip
Rattus norvegicus [14] = assay: Antihypertensive activity in hypertensive rats, after peroral administration that lowered the blood pressure by 50 mmHg; format: functional; details: po
[15] = Lethal dose in mouse was determined by administering perorally; format: toxicity, organism-based; details: in vivo, po
Rattus norvegicus [16] = assay: Antihypertensive activity in hypertensive rats, after peroral administration that lowered the blood pressure by 50 mmHg; value ranges from 3.50 to 4.80; format: functional; details: po
Rattus norvegicus [17] = assay: divya_inp96 Antihypertensive activity in hypertensive rats, after peroral administration that lowered the blood pressure by 50 mmHg; format: functional; details: po
Cavia porcellus [18] = organism: Cavia porcellus; assay: In vitro reversible inhibitory activity of adenosine diphosphate (0.5 uM)-induced platelet aggregation in guinea pig platelet rich plasma; NA means inactive; format: functional
Mus musculus [19] = assay: Antithrombotic activity in mouse when administered a dose of 20 mg/kg perorally; NA means inactive; format: functional, organism-based; parameters: dose 20 mg/kg
Cavia porcellus [20] = organism: Cavia porcellus; assay: In vitro irreversible inhibitory activity of adenosine diphosphate (0.5 uM)-induced platelet aggregation in guinea pig platelet rich plasma; NA means inactive; format: functional
Rattus norvegicus [21] = assay: Antihypertensive activity in hypertensive rats, after peroral administration that lowered the blood pressure by 50 mmHg; value ranges from 2.50 to 6.50; format: functional; details: po
[22] = divya_inp96 Lethal dose in mouse by administering compound intraperitoneally; format: toxicity, organism-based; details: in vivo, ip
Cavia porcellus [23] = organism: Cavia porcellus; assay: Inhibitory activity of thrombin (0.625 IU/mL)-induced platelet aggregation in guinea pig platelet rich plasma after 2 min; format: functional
Rattus norvegicus [24] = assay: Antihypertensive activity in hypertensive rats, after peroral administration that lowered the blood pressure by 50 mmHg; Valure ranges from 1.67 to 5.40; format: functional; details: po

Row | Compound | Inhibition (Cavia porcellus [3]) | pD2 (Cavia porcellus [4]) | Inhibition (Cavia porcellus [5]) | Relative activity (Rattus norvegicus [6]) | Inhibition (Cavia porcellus [9]) | Inhibition (Cavia porcellus [10]) | Inhibition (Cavia porcellus [11]) | Peak effect (Rattus norvegicus [8]) | LD50 [13] | Protection (Mus musculus [7]) | LD50 [15] | also measured
1 | CC(=O)Nc1ccc2c(c1)CCC1CC(=O)NN=C21 (single isomer, unassigned; (+)) | 2% | 5.65 | 36% | 1.95 | 77% | 91% | 100% | – | – | – | – | LD50 (Mus musculus [1]): > 1000 mg/kg; ED50 (Rattus norvegicus [2]): 2.1 mg/kg; Protection (Mus musculus [7]; 20 mg/kg): 89%; Peak effect (Rattus norvegicus [8]; 25 mg/kg): 55
2 | Nc1ccc2c(c1)CC1CC(=O)NN=C21 (stereo not given) | – | 5.05 | – | 0.37 | – | – | – | 49 | – | – | – | ED50 (Rattus norvegicus [12]): 11 mg/kg
3 | Oc1cc2c(nn1)-c1ccccc1CC2 | – | 4.74 | – | – | – | – | – | -35 | 707 mg/kg | 33% | > 1000 mg/kg | ED50 (Rattus norvegicus [14]): > 25 mg/kg
4 | CC(=O)Nc1ccc2c(c1)CC1CC(=O)NN=C21 (stereo not given) | – | 5.95 | – | 0.58 | – | – | – | 53 | – | – | – | ED50 (Rattus norvegicus [16]): 7.1 mg/kg
5 | N/N=c1\[nH][nH]/c(=N\N)c2ccccc12 [DIHYDRALAZINE] | – | – | – | 1 | – | – | – | 68 | – | – | – | ED50 (Rattus norvegicus [17]): 64.1 mg/kg
6 | Nc1ccc2c(c1)CCCC1CC(=O)NN=C21 (stereo not given) | – | – | – | – | – | – | – | – | 483 mg/kg | 45% | 700 mg/kg | –
7 | CC(=O)Nc1ccc2c(c1)CCc1cc(O)nnc1-2 | 6% | 5.77 | 40% | 1.14 | 95% | 81% | 86% | 50 | 651 mg/kg | 55% | > 1000 mg/kg | ED50 (Rattus norvegicus [14]): 3.6 mg/kg
8 | CC(=O)Nc1cccc2c1CCC1CC(=O)NN=C21 (stereo not given) | – | – | – | – | – | – | – | – | 378 mg/kg | – | > 1000 mg/kg | inhibition (Cavia porcellus [18]): inactive; Protection (Mus musculus [19]): inactive; inhibition (Cavia porcellus [20]): inactive
9 | CC(Cl)C(=O)Nc1ccc2c(c1)CCC1CC(=O)NN=C21 (stereo not given) | – | – | – | – | – | – | – | – | > 1000 mg/kg | 33% | > 1000 mg/kg | –
10 | Cn1c(=O)c2[nH]cnc2n(C)c1=O.Cn1c(=O)c2[nH]cnc2n(C)c1=O.NCCN [AMINOPHYLLINE] | – | 5.91 | – | – | – | – | – | – | – | – | – | –
11 | Nc1ccc2c(c1)CCC1CC(=O)NN=C21 (stereo not given) | 21% | 4.93 | 10% | 1.17 | 42% | 13% | 27% | 90 | 611 mg/kg | 73% | > 1000 mg/kg | ED50 (Rattus norvegicus [21]): 3.5 mg/kg
12 | CC(=O)Nc1ccc2c(c1)CCCC1CC(=O)NN=C21 (stereo not given) | – | – | – | – | – | – | – | – | > 1000 mg/kg | 46% | > 1000 mg/kg | –
13 | CC(=O)Oc1ccccc1C(=O)O [ASPIRIN] | 75% | – | 0% | – | 100% | – | 0% | – | – | 44% | > 1000 mg/kg | LD50 [22]: 6500 mg/kg; Inhibition (Cavia porcellus [23]): 0%
14 | O=C1CC2CCc3ccccc3C2=NN1 (stereo not given) | 100% | 4.98 | 30% | – | 95% | 84% | 97% | 70 | 450 mg/kg | 59% | 666 mg/kg | ED50 (Rattus norvegicus [14]): 23.5 mg/kg
15 | N#Cc1ccc2c(c1)CCC1CC(=O)NN=C21 (stereo not given) | – | – | – | – | – | – | – | – | 560 mg/kg | – | > 1000 mg/kg | Protection (Mus musculus [19]): inactive
16 | CC(=O)Nc1ccc2c(c1)CCC1CC(=O)NN=C21 (racemic) | 47% | 5.54 | 47% | 1.32 | 92% | 65% | 66% | – | – | – | > 1000 mg/kg | ED50 (Rattus norvegicus [24]): 3.1 mg/kg; LD50 (Mus musculus [1]): 460 mg/kg; Protection (Mus musculus [7]; 20 mg/kg): 100%; Peak effect (Rattus norvegicus [8]; 25 mg/kg): 90
17 | CC(=O)Nc1ccc2c(c1)CCC1CC(=O)NN=C21 (stereo in doubt; (-)-3c) | 10% | – | 37% | – | 76% | 62% | 63% | – | – | – | – | Protection (Mus musculus [7]; 20 mg/kg): 84%
18 | CC(=O)Nc1ccc2c(c1)C1=NNC(=O)CC1CC2 (stereo not given) | 62% | – | 0% | – | 6% | 17% | 14% | – | > 1000 mg/kg | 25% | > 1000 mg/kg | –
